Measured values: US10800789B2, “Antiviral compounds” (Gilead Pharmasset LLC, priority 2012, dated 2020)
Like-named read-outs stand apart in the source and are kept apart here.

What was measured:
[1] = system: NS5A chimeric genotype 2a JFH-1 replicon with genotype 2b MD2b-1 strain NS5A gene (M31 present); assay: Replicon assay, genotype 2b NS5A chimera; type: cell-based, HCV; settings: Hepatitis C virus
Method in brief: (§1)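 Cells carrying the stable or transiently transfected (Huh-Lunet) dicistronic RLuc replicons received 3-fold serial compound dilutions from 10 mM DMSO stocks. After 72 h, cells were lysed and Renilla luciferase read. DMSO served as the no-inhibition control and ITMN-191 above 100×EC50 as the positive control; EC50 by non-linear regression.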

[2] = system: stable HCV 1a RLuc replicon cells (dicistronic genotype 1a H77 replicon); assay: Renilla luciferase HCV replicon reporter assay, genotype 1a; type: cell-based; settings: Hepatitis C virus, 72 h, stable 1a H77 RLuc replicon cells
Method in brief: (§2)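 Antiviral EC50 was determined in HCV replicon cells (stable RLuc lines for 1a H77, 1b Con1, 2a JFH-1 with NS5A L31; J6 NS5A chimera with M31) treated 72 h with compound. Renilla luciferase was then quantified.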

[3] = system: NS5A chimeric genotype 1b Con1 replicon with genotype 4a ED43 strain NS5A gene; assay: Replicon assay, genotype 4a NS5A chimera; type: cell-based, HCV; settings: Hepatitis C virus
[4] = system: NS5A chimeric genotype 2a JFH-1 replicon with genotype 2a J6 strain NS5A gene (M31 present); assay: Replicon assay, genotype 2a J6 NS5A chimera; type: cell-based, HCV; settings: Hepatitis C virus
Method in brief: as §1

[5] = system: stable HCV 2a JFH-1 Rluc replicon cells (L31 present in NS5A); assay: Renilla luciferase HCV replicon reporter assay, genotype 2a JFH-1; type: cell-based; settings: Hepatitis C virus
Method in brief: as §2

[6] = system: stable HCV 1b RLuc replicon cells (dicistronic genotype 1b Con1 replicon); assay: Renilla luciferase HCV replicon reporter assay, genotype 1b; type: cell-based; settings: Hepatitis C virus, 72 h, stable 1b Con1 RLuc replicon cells, 72 hours; read-out: 1b
Method in brief: as §2

[7] = system: NS5A chimeric genotype 1b Con1 replicon with genotype 3a S52 strain NS5A gene; assay: Replicon assay, genotype 3a NS5A chimera; type: cell-based, HCV; settings: Hepatitis C virus
[8] = 2BS, read-out: 2b (s), stably replicating replicon cells (s), activity range
[9] = read-out: 2b (s) (nM), genotype 2b MD2b-1 NS5A chimeric replicon (M31), stably replicating replicon cells (s)
[10] = read-out: 4a (s) (nM), genotype 4a NS5A chimeric replicon, stable replicon cells (s)
[11] = read-out: 4a (s), (s), activity range
[12] = read-out: 2a J6 (t) (nM), genotype 2a J6 NS5A chimeric replicon (M31), transiently transfected (t) into Huh-Lunet cells
[13] = read-out: 2a J6 (t), transiently transfected (t) into Huh-Lunet cells, activity range
[14] = read-out: 2a JFH (nM), genotype 2a JFH-1 replicon (L31 in NS5A), stable cells
[15] = read-out: 2a JFH, stable 2a JFH-1 Rluc replicon cells, L31 in NS5A, activity range
[16] = read-out: 3a (s) (nM), genotype 3a NS5A chimeric replicon, stable replicon cells (s)
[17] = read-out: 3a (s), (s), activity range

| SMILES | EC50 [1, 8] [nM] | EC50 [1, 9] [nM] | EC50 [2] [nM] | EC50 ([2]; activity range) [nM] | EC50 [3, 10] [nM] | EC50 [3, 11] [nM] | EC50 [4, 12] [nM] | EC50 [4, 13] [nM] | EC50 [5, 14] [nM] | EC50 [5, 15] [nM] | EC50 [6] [nM] | EC50 [7, 16] [nM] | EC50 [7, 17] [nM] |
| --- | --- | --- | --- | --- | --- | --- | --- | --- | --- | --- | --- | --- | --- |
| CC[C@H]1C[C@@H](c2nc3ccc4cc5c(cc4c3[nH]2)OCc2cc(-c3cnc([C@@H]4CC[C@H](C)N4C(=O)[C@@H](NC(=O)OC)C(C)C)[nH]3)ccc2-5)N(C(=O)[C@@H](NC(=O)OC)C(C)C)C1 [GT] | 1 to 44 | 1.73 | 0.017 | < 0.1 | 0.031 | < 0.1 | 0.257 | 0.1 to 0.999 | 0.028 | < 0.1 | 0.021 | 0.187 | 0.1 to 0.999 |
| COC(=O)N[C@H](C(=O)N1[C@@H](C)CC[C@H]1c1ncc(-c2ccc3c(c2)COc2cc4c(ccc5nc([C@@H]6CC[C@H](C)N6C(=O)[C@@H](NC(=O)OC)[C@H](C)OC)[nH]c54)cc2-3)[nH]1)[C@H](C)OC [GE] | 0.1 to 0.999 | 0.772 | 0.043 | < 0.1 | 0.026 | < 0.1 | 0.508 | 0.1 to 0.999 | 0.104 | 0.1 to 0.999 | 0.062 | 0.445 | 0.1 to 0.999 |
| COC(=O)N[C@H](C(=O)N1C[C@@H](C)C[C@H]1c1ncc(-c2ccc3c(c2)COc2cc4c(ccc5nc([C@@H]6CC[C@H](C)N6C(=O)[C@@H](NC(=O)OC)C6CCOCC6)[nH]c54)cc2-3)[nH]1)C(C)C [FN, Methyl [(2S)-1-{(2S,4S)-2-[5-(2-{(2S,5S)-1-[(2S)-2-[(methoxycarbonyl)amino]-2-(tetrahydro-2H-pyran-4-yl)acetyl]-5-methylpyrrolidin-2-yl}-1,11-dihydroisochromeno[4′,3′:6,7]naphtho[1,2-d]imidazol-9-yl)-1H-imidazol-2-yl]-4-methylpyrrolidin-1-yl}-3-methyl-1-oxobutan-2-yl]carbamate] | 0.1 to 0.999 | 0.142 | 0.035 | < 0.1 | 0.02 | < 0.1 | 0.068 | < 0.1 | 0.028 | < 0.1 | 0.053 | 0.084 | < 0.1 |
| CC[C@H]1CC[C@@H](c2ncc(-c3ccc4c(c3)COc3cc5c(ccc6nc([C@@H]7CC[C@H](C)N7C(=O)[C@@H](NC(=O)OC)[C@@H](C)OC)[nH]c65)cc3-4)[nH]2)N1C(=O)[C@H](C)NC(=O)OC [GP] | 1 to 44 | 2.33 | 0.018 | < 0.1 | 0.031 | < 0.1 | 1.07 | 1 to 44 | 0.027 | < 0.1 | 0.027 | 0.571 | 0.1 to 0.999 |
| COC(=O)N[C@H](C(=O)N1[C@@H](C)CC[C@H]1c1nc2ccc3cc4c(cc3c2[nH]1)OCc1cc(-c2cnc([C@@H]3C[C@@H]5CCC[C@@H]5N3C(=O)[C@@H](NC(=O)OC)C3CCOCC3)[nH]2)ccc1-4)C(C)C [IB] | 0.1 to 0.999 | 0.129 | 0.021 | < 0.1 | 0.026 | < 0.1 | 0.05 | < 0.1 | 0.027 | < 0.1 | 0.032 | 0.077 | < 0.1 |
